Measured values reported in patent publication US20170014407A1, “PYRIDAZINE DERIVATIVES FOR USE IN THE PREVENTON OR TREATMENT OF AN ATAXIC DISORDER” (TAKEDA PHARMACEUTICAL COMPANY LIMITED, priority 2014, published 2017).

What was measured:
[1] = tested on: mice carrying inherited or chemically-induced ataxia mutations; settings: Saigoh et al. 1998, cited from earlier work; for Concentration of endogenous D-serine in the cerebellum: ataxic mutant mice; for Effect on ataxia: mice carrying inherited or chemically-induced ataxia mutations
[2] = tested on: C57B16 mice; experiment: Delayed eyeblink conditioning test (dEBC); type: in vivo, mouse; settings: Group E, scopolamine 0.3 mg/kg subcutaneous
Excerpt: Three-month old, male C57B16 mice were implanted with recording electrodes in the orbicularis oculi muscle and with stimulating electrodes on the supraorbital nerve. For classical conditioning, animals were presented with a 350-ms tone as a conditioned stimulus (CS) at the end of which received an electrical pulse in the supraorbital nerve as unconditioned stimulus (US). Classical conditioning was achieved using a delay paradigm. For this, a tone (350 ms, 2 kHz, 85-90 dB) was presented as CS. The US consisted of a paired pulse with 1 millisecond of inter-pulse interval. Each pulse lasted for 0.1 millisecond. The US was presented at the end of the CS. A total of two habituation, ten conditioning, and five extinction sessions were carried out for each animal. Further details of this method can be found in the article by Gruart A., “Involvement of the CA3-CA1 synapse in the acquisition of associative learning in behaving mice”, J. Neurosci., 2006, 26, 1077-1087.
The effects on associative learning of a DAAO inhibitor compound of the invention were compared against different control and scopolamine-administered groups. Scopolamine is io a non-selective muscarinic receptor antagonist shown to consistently produce impairment of learning in rodents (see Klinkenberg, A., “The validity of scopolamine as a pharmacological model for cognitive impairment: A review of animal behavioral studies” Neuroscience and Biobehavioral Reviews, 2010, 34, 1307-1350.
is Nine groups, each containing 15 mice except for the untreated control group which contained 14 mice, were tested:
Group A was orally administered with Vehicle 1 (an aqueous solution of 0.5% methyl cellulose);
Group B was orally administered with a solution of a DAAO inhibitor of formula (I) in Vehicle 1 at a dose of 0.1 mg/kg (Solution 1);
Group C was orally administered with a solution of a DAAO inhibitor of formula (I) (the same one as for Group B) in Vehicle 1 at a dose of 1.0 mg/kg (Solution 2);
Group D was administered subcutaneously with Vehicle 2 (distilled water);
Group E was administered subcutaneously with a solution of scopolamine in Vehicle 2 at a dose of 0.3 mg/kg (Solution 3);
Group F was administered orally with Solution 1 and subcutaneously with Solution 3;
Group G was administered orally with Solution 2 and subcutaneously with Solution 3;
Group H was administered orally with Vehicle 1 and subcutaneously with Vehicle 2;
Group I was the untreated control group.

Row | Compound | Concentration of endogenous D-serine in the cerebellum [1] | Effect on ataxia [1] | Mean Percentage of Conditioned Responses (%) ([2]; conditioning session 1) | Mean Percentage of Conditioned Responses (%) ([2]; conditioning session 2) | Mean Percentage of Conditioned Responses (%) ([2]; conditioning session 3) | Mean Percentage of Conditioned Responses (%) ([2]; conditioning session 4) | Mean Percentage of Conditioned Responses (%) ([2]; conditioning session 5) | Mean Percentage of Conditioned Responses (%) ([2]; conditioning session 6) | Mean Percentage of Conditioned Responses (%) ([2]; conditioning session 7) | Mean Percentage of Conditioned Responses (%) ([2]; conditioning session 8) | Mean Percentage of Conditioned Responses (%) ([2]; conditioning session 9) | Mean Percentage of Conditioned Responses (%) ([2]; conditioning session 10) | Mean Percentage of Conditioned Responses (%) ([2]; extinction session 1) | Mean Percentage of Conditioned Responses (%) ([2]; extinction session 2) | Mean Percentage of Conditioned Responses (%) ([2]; extinction session 3) | Mean Percentage of Conditioned Responses (%) ([2]; extinction session 4) | Mean Percentage of Conditioned Responses (%) ([2]; extinction session 5) | Mean Percentage of Conditioned Responses (%) ([2]; habituation session 1) | Mean Percentage of Conditioned Responses (%) ([2]; habituation session 2)
1 | N[C@@H]1CONC1=O [D-cycloserine] | increase in the concentration of endogenous D-serine in the cerebellum | ameliorating effect on ataxia |  |  |  |  |  |  |  |  |  |  |  |  |  |  |  |  | 
2 | CCOC(=O)[C@H](N)CO [D-serine ethylester] | increase in the concentration of endogenous D-serine in the cerebellum | ameliorating effect on ataxia |  |  |  |  |  |  |  |  |  |  |  |  |  |  |  |  | 
3 | CN1[C@@H]2C[C@@H](OC(=O)[C@H](CO)c3ccccc3)C[C@H]1[C@@H]1O[C@@H]12 [scopolamine] |  |  | 37.67 | 40.33 | 43.78 | 43.33 | 45.67 | 45.98 | 48.78 | 51.56 | 51.33 | 52.56 | 51.22 | 45.78 | 43.78 | 42.00 | 43.22 | 26.44 | 27.44
